Assay [1] concerns the target T1, CotA / bilirubin oxidase (BOD) from Bacillus pumilus (Bacillus pumilus, UniProt A8FAG9). The experiment in a line: spectrophotometric oxidation at […] nm, Michaelis-Menten fit. The class given is biochemical. The following applies: optimal pH (assay pH 6.8), 37 °C, McIlvaine citrate-phosphate buffer.
Assay [2] concerns the target T1, CotA / bilirubin oxidase (BOD) from Bacillus pumilus. The experiment in a line: spectrophotometric at […] nm. The class given is biochemical. The following applies: optimal pH (assay pH 7.2, 50 mM sodium phosphate), 37 °C.

Structures are written as SMILES.

As a reminder, the Km is the substrate concentration at which the rate is half of its maximum. `COc1cccc(OC)c1O` [2,6-DMP, 2,6-dimethoxyphenol]: in assay [1], the Michaelis-Menten constant (Km) is 822 µM.

For the compound `C=CC1=C(C)/C(=C/c2[nH]c(Cc3[nH]c(/C=C4\NC(=O)C(C)=C4C=C)c(C)c3CCC(=O)O)c(CCC(=O)O)c2C)NC1=O` [unconjugated bilirubin], the Michaelis constant (Km) in assay [2] worked out at 22 µM.

The values above are taken from publication PMC3724473 (Biosensors & bioelectronics, 2012).
